From US12187709B2 (Genentech, Inc., priority 2021, dated 2025)

Legend:
c-Cbl = c-Cbl (Homo sapiens (Human), UniProt P22681); test: C-Cbl LCK Ub TR-FRET assay (C-cbl Lck HTRF); assay type: biochemical
In short: (§1)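 Detection reagents added, brief spin, 20 min RT. IC50 fit normalized to no-LCK (low) and DMSO (high) controls.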

Cbl-b = Cbl-b (Homo sapiens (Human), UniProt Q13191); test: Cbl-b LCK Ub TR-FRET assay (Cbl-b Lck HTRF); assay type: biochemical; conditions: for IC50: Cbl-b LCK Ub TR-FRET; for fold-selectivity (Cbl-b over C-cbl) / (fold-selectivity) Cbl-b and C-Cbl Selectivity: ratio C-cbl Lck HTRF IC50 / Cbl-b Lck HTRF IC50
Cbl-b, sequence (Q13191 40-426): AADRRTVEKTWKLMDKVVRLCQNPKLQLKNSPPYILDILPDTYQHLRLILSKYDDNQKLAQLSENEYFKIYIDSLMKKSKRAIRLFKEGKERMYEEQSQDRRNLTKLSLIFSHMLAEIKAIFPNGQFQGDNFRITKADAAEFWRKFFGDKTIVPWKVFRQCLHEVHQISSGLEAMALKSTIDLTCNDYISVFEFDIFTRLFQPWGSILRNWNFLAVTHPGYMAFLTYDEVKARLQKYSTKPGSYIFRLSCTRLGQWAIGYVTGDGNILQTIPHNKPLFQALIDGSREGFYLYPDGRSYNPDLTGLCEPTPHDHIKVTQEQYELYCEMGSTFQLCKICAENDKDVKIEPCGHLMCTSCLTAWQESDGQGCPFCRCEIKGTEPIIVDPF
In short: as §1

c-Cbl (residues 47-435) = c-Cbl (residues 47-435) (Homo sapiens (Human), UniProt P22681); test: c-Cbl SPR assay; assay type: binding; conditions: 20° C.
c-Cbl (residues 47-435), sequence (P22681 47-435): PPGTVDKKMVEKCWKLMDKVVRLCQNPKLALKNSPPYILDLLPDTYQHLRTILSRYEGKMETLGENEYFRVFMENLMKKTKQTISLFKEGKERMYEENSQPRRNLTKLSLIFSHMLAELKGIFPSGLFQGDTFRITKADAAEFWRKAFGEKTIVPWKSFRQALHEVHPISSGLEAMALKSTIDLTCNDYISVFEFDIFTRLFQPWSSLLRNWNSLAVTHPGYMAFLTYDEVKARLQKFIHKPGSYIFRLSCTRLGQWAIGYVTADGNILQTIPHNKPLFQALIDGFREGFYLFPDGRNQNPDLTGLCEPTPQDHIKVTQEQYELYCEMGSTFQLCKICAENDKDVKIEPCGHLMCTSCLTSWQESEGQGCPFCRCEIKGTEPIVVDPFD
In short: (§2)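 Where a chaser compound was used, % compound bound was calculated as (1−(RUT/RUT0))*100 relative to a prior chaser injection and fitted to a single exponential for kd. The single cycle titration (max 500 nM) was then fitted with kd held fixed.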

[1] = biological target: Human Cbl-b (residues 40-426) (Homo sapiens (Human), UniProt Q13191); test: Cbl-b SPR assay; assay type: binding; conditions: for Fold of selectivity: C-cbl SPR Kd vs Cbl-b SPR Kd; for Kd: SPR, 20° C.
Human Cbl-b (residues 40-426), sequence (Q13191 40-426): as the sequence (Q13191 40-426) above
In short: as §2

c-Cbl, sequence (P22681 47-435): as the sequence (P22681 47-435) above

Cn1cnnc1C1(c2cc(OC3CCCC3)nc(N3Cc4c(cc(CNC5(C)CCC5)cc4C(F)(F)F)C3=O)c2)CC2(COC2)C1 [Compound 193]
IC50 (c-Cbl): 420 nM | IC50 (Cbl-b): 36 nM | fold-selectivity (Cbl-b over C-cbl) (Cbl-b): 11x | Kd (c-Cbl (residues 47-435)): 320 nM | Fold of selectivity [1]: 27× | Kd [1]: 12 nM

CO[C@H]1C[C@](c2cccc(N3Cc4c(cc(CNC5CCC5)cc4C(F)(F)F)C3=O)c2)(c2nncn2C)C1 [Compound 414, 6-((cyclobutylamino)methyl)-2-(3-((1r,3r)-3-methoxy-1-(4-methyl-4H-1,2,4-triazol-3-yl)cyclobutyl)phenyl)-4-(trifluoromethyl)isoindolin-1-one]
IC50 (c-Cbl): 50 nM | IC50 (Cbl-b; Example 121): 9.4 nM | (fold-selectivity) Cbl-b and C-Cbl Selectivity (Cbl-b): 5.2x | Kd (c-Cbl (residues 47-435)): 77 nM | Fold of selectivity [1]: 7.7× | Kd [1]: 10 nM

Cn1cnnc1[C@H](c1cccc(N2Cc3c(cc(CNC4(C)CCC4)cc3C(F)(F)F)C2=O)c1)C1CC(OC(F)F)C1 (single isomer, unassigned) [Compound 390]
IC50 (c-Cbl): 5.5 nM | IC50 (Cbl-b): 5.5 nM | fold-selectivity (Cbl-b over C-cbl) (Cbl-b): 1.0x | Kd (c-Cbl (residues 47-435)): 1.7 nM | Fold of selectivity [1]: 3.0× | Kd [1]: 0.6 nM

CO[C@H]1C[C@](c2cccc(N3Cc4c(cc(CNC5CC6CC6C5)cc4C(F)(F)F)C3=O)c2)(c2nncn2C)C1 (stereo partly drawn) [Compound 498, 6-((bicyclo[3.1.0]hexan-3-ylamino)methyl)-2-(3-((1r,3r)-3-methoxy-1-(4-methyl-4H-1,2,4-triazol-3-yl)cyclobutyl)phenyl)-4-(trifluoromethyl)isoindolin-1-one]
IC50 (c-Cbl): 15 nM | IC50 (Cbl-b; Example 121): 4.1 nM | (fold-selectivity) Cbl-b and C-Cbl Selectivity (Cbl-b): 3.6x | Kd (c-Cbl (residues 47-435)): 13 nM | Fold of selectivity [1]: 16× | Kd [1]: 0.8 nM

Cn1cnnc1[C@]1(c2cc(NC3CCC3)nc(N3Cc4c(cc(CNC5(C)CCC5)cc4C(F)(F)F)C3=O)c2)C[C@H](C)C1 [Compound 67, 2-(6-(cyclobutylamino)-4-((1S,3S)-3-methyl-1-(4-methyl-4H-1,2,4-triazol-3-yl)cyclobutyl)pyridin-2-yl)-6-(((1-methylcyclobutyl)amino)methyl)-4-(trifluoromethyl)isoindolin-1-one]
IC50 (c-Cbl): 5.9 nM | IC50 (Cbl-b): 6.5 nM | fold-selectivity (Cbl-b over C-cbl) (Cbl-b): (0.9x) | Kd (c-Cbl (residues 47-435)): 0.53 nM | Fold of selectivity [1]: 1.5× | Kd [1]: 0.36 nM

Cn1cnnc1C1(c2cccc(N3Cc4c(cc(CNC5(C)CCC5)cc4C(F)(F)F)C3=O)c2)CS(=O)(=O)C1 [Compound 328, 2-(3-(3-(4-methyl-4H-1,2,4-triazol-3-yl)-1,1-dioxidothietan-3-yl)phenyl)-6-(((1-methylcyclobutyl)amino)methyl)-4-(trifluoromethyl)isoindolin-1-one]
IC50 (c-Cbl): 380 nM | IC50 (Cbl-b): 100 nM | fold-selectivity (Cbl-b over C-cbl) (Cbl-b): 3.8x | Kd (c-Cbl (residues 47-435)): 320 nM | Fold of selectivity [1]: 4.8× | Kd [1]: 67 nM

Cn1cnnc1[C@@H](c1cccc(N2Cc3c(cc(CNC4(C)CCC4)cc3C(F)(F)F)C2=O)c1)C1CC(OC(F)F)C1 (single isomer, unassigned) [Compound 387]
IC50 (c-Cbl): 1000 nM | IC50 (Cbl-b): 130 nM | fold-selectivity (Cbl-b over C-cbl) (Cbl-b): 7.8x | Kd (c-Cbl (residues 47-435)): 1900 nM | Fold of selectivity [1]: 9.5× | Kd [1]: 200 nM

CCOc1cc(C2(c3nncn3C)CC(F)(F)C2)cc(N2Cc3c(cc(CNC4(C)CCC4)cc3C(F)(F)F)C2=O)n1 [Compound 182, 2-(4-(3,3-difluoro-1-(4-methyl-4H-1,2,4-triazol-3-yl)cyclobutyl)-6-ethoxypyridin-2-yl)-6-(((1-methylcyclobutyl)amino)methyl)-4-(trifluoromethyl)isoindolin-1-one]
IC50 (c-Cbl): 11 nM | IC50 (Cbl-b): 11 nM | fold-selectivity (Cbl-b over C-cbl) (Cbl-b): 1.0x | Kd (c-Cbl (residues 47-435)): 0.85 nM | Fold of selectivity [1]: 2.7× | Kd [1]: 0.35 nM

Cn1cnnc1[C@H](c1cccc(N2Cc3c(cc(CNC4(C)CCC4)cc3C(F)(F)F)C2=O)c1)C1CC(F)C1 (single isomer, unassigned) [Compound 128]
IC50 (c-Cbl): 1300 nM | IC50 (Cbl-b): 240 nM | fold-selectivity (Cbl-b over C-cbl) (Cbl-b): 4.9x | Kd (c-Cbl (residues 47-435)): 3000 nM | Fold of selectivity [1]: 13× | Kd [1]: 230 nM

C=C[C@H](C)Nc1cc(N2Cc3c(cc(CNC4(C)CCC4)cc3C(F)(F)F)C2=O)cc([C@]2(c3nncn3C)C[C@H](OC)C2)c1 (single isomer, unassigned) [Compound 220]
IC50 (c-Cbl): 39 nM | IC50 (Cbl-b): 13 nM | fold-selectivity (Cbl-b over C-cbl) (Cbl-b): 3.0x | Kd (c-Cbl (residues 47-435)): 34 nM | Fold of selectivity [1]: 13× | Kd [1]: 2.7 nM

CCOC1CC([C@H](c2cccc(N3Cc4c(cc(CNC5(C)CCC5)cc4C(F)(F)F)C3=O)c2)c2nncn2C)C1 (single isomer, unassigned) [Compound 265]
IC50 (c-Cbl): 3400 nM | IC50 (Cbl-b): 310 nM | fold-selectivity (Cbl-b over C-cbl) (Cbl-b): 11x | Kd (c-Cbl (residues 47-435)): 1300 nM | Fold of selectivity [1]: 7.5× | Kd [1]: 180 nM

COCC1(NCc2cc3c(c(C(F)(F)F)c2)CN(c2cccc([C@]4(c5nncn5C)C[C@H](OC)C4)c2)C3=O)CC1 [Compound 487, 2-(3-((1r,3r)-3-methoxy-1-(4-methyl-4H-1,2,4-triazol-3-yl)cyclobutyl)phenyl)-6-(((1-(methoxymethyl)cyclopropyl)amino)methyl)-4-(trifluoromethyl)isoindolin-1-one]
IC50 (c-Cbl): 150 nM | IC50 (Cbl-b; Example 121): 19 nM | (fold-selectivity) Cbl-b and C-Cbl Selectivity (Cbl-b): 7.4x | Kd (c-Cbl (residues 47-435)): 210 nM | Fold of selectivity [1]: 41× | Kd [1]: 4.9 nM

CC[C@@](O)(c1cccc(N2Cc3c(cc(CNC4(C)CCC4)cc3C(F)(F)F)C2=O)c1)c1nncn1C (single isomer, unassigned) [Compound 392]
IC50 (c-Cbl): 14 nM | IC50 (Cbl-b): 10 nM | fold-selectivity (Cbl-b over C-cbl) (Cbl-b): 1.4x | Kd (c-Cbl (residues 47-435)): 38 nM | Fold of selectivity [1]: 5.1× | Kd [1]: 7.5 nM

CC1=C[C@@](c2cc(NC3CCC3)nc(N3Cc4c(cc(CN5CCN(C)C[C@@H]5C(C)C)cc4C(F)(F)F)C3=O)c2)(c2nncn2C)C1 (single isomer, unassigned) [Compound 71]
IC50 (c-Cbl): 16.8 nM | IC50 (Cbl-b): 14 nM | fold-selectivity (Cbl-b over C-cbl) (Cbl-b): (1.2x) | Kd (c-Cbl (residues 47-435)): 34 nM | Fold of selectivity [1]: 9.1× | Kd [1]: 3.7 nM

CO[C@H]1C[C@@](c2cc(OC3CCCC3)cc(N3Cc4c(cc(CNC5(C)CCC5)cc4C(F)(F)F)C3=O)c2)(c2nncn2C)C1 [Compound 208, 2-(3-(cyclopentyloxy)-5-((1s,3s)-3-methoxy-1-(4-methyl-4H-1,2,4-triazol-3-yl)cyclobutyl)phenyl)-6-(((1-methylcyclobutyl)amino)methyl)-4-(trifluoromethyl)isoindolin-1-one]
IC50 (c-Cbl): 2200 nM | IC50 (Cbl-b): 450 nM | fold-selectivity (Cbl-b over C-cbl) (Cbl-b): 4.8x | Kd (c-Cbl (residues 47-435)): 1500 nM | Fold of selectivity [1]: 6.0× | Kd [1]: 250 nM

CO[C@H]1C[C@](c2cccc(N3Cc4c(cc(CN5CC(O)C5)cc4C(F)(F)F)C3=O)c2)(c2nncn2C)C1 [Compound 422, 6-((3-hydroxyazetidin-1-yl)methyl)-2-(3-((1r,3r)-3-methoxy-1-(4-methyl-4H-1,2,4-triazol-3-yl)cyclobutyl)phenyl)-4-(trifluoromethyl)isoindolin-1-one]
IC50 (c-Cbl): 1600 nM | IC50 (Cbl-b; Example 121): 220 nM | (fold-selectivity) Cbl-b and C-Cbl Selectivity (Cbl-b): 7.2x | Kd (c-Cbl (residues 47-435)): 1800 nM | Fold of selectivity [1]: 5.3× | Kd [1]: 340 nM
